Results from patent publication US10912815B2, “Inhibitors of mitochondrial fission and methods of use thereof” (The Board of Trustees of the Leland Stanford Junior …, priority 2011, dated 2021).
“Also recorded” adds a separate entry of the source. No end group written: not given here.

System: SH-SY5Y cells
Assay: Mitochondrial morphology/fragmentation in SH-SY5Y cells (TOM20 staining)
Format: cell-based, human
Conditions: for percentage of cells with fragmented mitochondria: P110 1 μM 30 min, FIG. 5
Description: To determine effects of P110 on mitochondrial morphology in response to mitochondrial stresses, an immuno-staining approach was used. In one experiment, SH-SY5Y neuronal cells were treated with Drp1 peptides or Drp1 siRNA followed by treatment of MPP+. The cells were then stained with TOM20 and Hoechst stain.
In another experiment, cultured SH-SY5Y cells were treated with P110 (1 μM) for 30 min followed by incubation with MPP+(2 mM, 4 hrs) or CCCP (5 uM, 30 min). The cells were then stained with anti-Tom 20 antibody (green) and Hoechst stain (scale bar 0.5 μm). Mitochondrial morphology was analyzed using 63× oil lens. The data were analyzed and are presented as a histogram in which the percentage of cells with fragmented mitochondria relative to the total number of cells is presented as the mean±S.E. of 3 independent experiments. At least 200 cells per group were counted.

Question: Which “percentage of cells with fragmented mitochondria” value (then CCCP 5 uM 30 min, 63% without P110) does the source give for “RRRQRRKKRGYGGDLLPRGS (RRRQRRKKRGYGGDLLPRGS-NH2) [P110, TAT47-57 carrier, GG linker, Drp1 region 110 (GTPase domain) peptide DLLPRGS; C-terminus C(O)-NH2]” here?
Answer: The value was 23%.

Question: What about the “percentage of cells with fragmented mitochondria” value (then MPP+ 2 mM 4 hrs, 50% without P110) of the same sequence?
Answer: Its value is 14%.

Question: And the “reduction of mitochondrial fragmentation in cells exposed to MPP+” value (SH-SY5Y, MPP+, p<0.01, n=3, FIG. 4A, 4B)?
Answer: The value was 70%.

Question: What about the “mitochondrial morphology/network in control (non-stressed) cells” value (SH-SY5Y, no stressor) of the same sequence?
Answer: The value was “minimal effects; also recorded: no effect; also recorded: did not observe dramatic difference”.
